Laboratory results as given in the NIST ThermoML archive (doi:10.1021/acs.jced.7b00020).
± gives the expanded uncertainty stated by the source.

Assay: wn = mass fraction of the nth substance listed
Details: 100 kPa, Liquid, Pycnometric method

Row | mass density (288.15 K, w1 = 0.1686) [kg/m3] | mass density (318.15 K, w1 = 0.2685) [kg/m3] | mass density (288.15 K, w1 = 0.436) [kg/m3] | mass density (318.15 K, w1 = 0.5992) [kg/m3] | SMILES
1 | 1126.4 ± 2.6 | 1204.6 ± 2.8 |  |  | O=P([O-])(O)O.[K+] [monopotassium phosphate] + O
2 |  |  | 1388.4 ± 3.4 | 1573.3 ± 3.8 | O=P([O-])(O)O.[Na+] [sodium dihydrogen phosphate] + O
